Counter-ions that a name gives are not always drawn.
What was measured:
[1] = tested on: nicotinic and muscarinic receptors; conditions: cited from earlier work
rats = conditions: cited from earlier work
muscarinic receptors = assay: Inhibition of 3H-oxotremorine-M binding to hippocampal membranes; conditions: [3H]oxotremorine ([3H]OXO) binding, muscarinic receptor affinity, rat membranes
Experimental: The hippocampus from male Sprague-Dawley rats was homogenized in 10 volumes of 0.32 M sucrose, centrifuged at 1000 x g for 10 min, and the supernatant was centrifuged at 17,000 x g for 20 min. The synaptosoma! fraction (P₂) pellet was homogenized in 50 volumes of 20 mM Tris-Cl buffer, pH 7.4, and centrifuged at 50,000 x g for 10 min. After resuspension in buffer, the suspension was preincubated for 30 min at 4 °C, and centrifuged again. The pellet was resuspended in 3 volumes of buffer and frozen at -70 °C until used.
For oxotremorine-M binding, the homogenates were incubated at 25 °C for 15 min. After incubation, the homogenates were filtered through Whatman GF/C filters with vacuum. The filters were rinsed 3X with 1 mL of cold buffer and placed in scintillation vials containing Ready Protein+ (Beckman) scintillation fluid. Radioactivity trapped on the filters was determined by liquid scintillation spectrometry. Non specific binding was determined using 1 µM atropine.
The concentration of compound required to inhibit binding 50% (IC₅₀) was calculated using the ALLFIT program.

nicotinic receptors = nicotinic receptors (Rattus norvegicus, UniProt P09483+P12390); assay: [3H]N-methyl-carbamyl choline ([3H]MCC) binding to rat brain cortical membranes; conditions: selectivity for nicotinic over muscarinic receptors
Experimental: Binding to rat brain nicotinic receptors was performed using the method of Abood and Grassi. Abood, L.E. et al., Biochem. Pharmacol. 35:4199-4202 (1987). Frozen rat brain cortices (Pel-Freez Biologicals, Roger, AR) were homogenized using a Polytron (Binkmann PT-10; setting 6 for 15 sec) in 30 volumes of buffer (50 mM tris, 120 mM sodium chloride, 5 mM potassium chloride, 2 mM calcium chloride, 1 mM magnesium chloride, pH 7.3 at 4°C). The homogenate was centrifuged at 1,000 xg for 10 min. (Sorval RC-5B; SA600 rotor). The supernatant was then centrifuged at 40,000 xg for 20 min. The final pellet was resuspended in buffer at a concentration of 12 vol./gram wet weight of tissue. Final protein concentrations for each assay were determined using the Lowry et al. method. Lowry, O.H. et al., J. Biol. Chem. 193:265-275 (1951).
[³H]N-Methyl-carbamyl choline iodide ([³H]MCC) binding to rat cortices was measured by filtration. Compounds dissolved in distilled water at concentrations of 1 nM to 1 mM, were incubated with [³H]MCC (1 nM), membrane aliquots (approximately 1.5 mg./ml. protein) and buffer, in a final volume of 0.5 ml. […] Nonspecific [³H]MCC binding was determined in the presence of 10 mM nicotine. […]
Radioactivity bound was determined after a period of equilibration (at least 5 hr) in Beckman Ready Protein Scintillation Cocktail using a Beckman LS5000 TA counter with an efficiency of 43%. […]

nicotinic receptors, sequence (P09483 31-630): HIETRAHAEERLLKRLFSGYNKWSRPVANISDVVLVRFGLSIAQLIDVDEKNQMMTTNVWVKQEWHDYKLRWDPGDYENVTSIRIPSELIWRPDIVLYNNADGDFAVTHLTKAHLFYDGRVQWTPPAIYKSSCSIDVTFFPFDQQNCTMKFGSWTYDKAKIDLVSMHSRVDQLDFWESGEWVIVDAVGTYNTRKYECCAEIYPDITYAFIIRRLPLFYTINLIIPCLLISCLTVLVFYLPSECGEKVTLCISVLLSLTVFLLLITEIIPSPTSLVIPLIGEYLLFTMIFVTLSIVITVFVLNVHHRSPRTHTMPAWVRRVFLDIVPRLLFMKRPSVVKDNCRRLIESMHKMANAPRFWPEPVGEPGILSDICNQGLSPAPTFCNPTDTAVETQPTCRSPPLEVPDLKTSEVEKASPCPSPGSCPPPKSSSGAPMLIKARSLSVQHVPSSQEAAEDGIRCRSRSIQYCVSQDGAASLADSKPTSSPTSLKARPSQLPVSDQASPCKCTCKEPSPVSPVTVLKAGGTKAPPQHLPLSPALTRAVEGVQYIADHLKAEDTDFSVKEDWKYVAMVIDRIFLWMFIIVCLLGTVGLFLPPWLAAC
nicotinic receptors, sequence (P12390 25-500): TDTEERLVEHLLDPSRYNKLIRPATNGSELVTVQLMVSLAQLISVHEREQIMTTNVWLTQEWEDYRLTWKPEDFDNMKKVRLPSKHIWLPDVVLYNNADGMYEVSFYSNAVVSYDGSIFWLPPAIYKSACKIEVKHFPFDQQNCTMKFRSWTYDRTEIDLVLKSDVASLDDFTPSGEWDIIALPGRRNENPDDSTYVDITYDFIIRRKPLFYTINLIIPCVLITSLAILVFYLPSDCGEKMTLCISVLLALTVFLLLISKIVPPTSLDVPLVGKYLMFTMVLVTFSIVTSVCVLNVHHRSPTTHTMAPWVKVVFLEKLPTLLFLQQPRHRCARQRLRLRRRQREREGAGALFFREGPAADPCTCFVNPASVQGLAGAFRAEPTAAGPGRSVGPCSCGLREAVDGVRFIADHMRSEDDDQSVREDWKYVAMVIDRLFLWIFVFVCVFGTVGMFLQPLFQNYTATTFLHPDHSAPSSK

Row | Molecule | agonist which binds to nicotinic and muscarinic receptors [1] | nicotine-like discriminative stimulus effects (rats) | Ki (muscarinic receptors) [µM] | Ki Ratio OXO/MCC (nicotinic receptors)
1 | 1-methyl-4-acetyl-1,2,3,6-tetrahydropyridine [isoarecolone methiodide] | very potent agonist | produce nicotine-like discriminative stimulus effects | – | –
2 | CCC(C)C(=O)C1=CCN(C)CC1 (stereo not drawn) [Example 11, 1-(1,2,3.6-Tetrahydro-1-methyl-4-pyridinyl)-2-methylbutanone] | – | – | 4.79 | –
3 | CN1CC=C(C(=O)C(C)(C)C)CC1 [Example 12, 1-(1,2,3,6-Tetrahydro-1-methyl-4-pyridinyl)-2,2-dimethylpropanone] | – | – | 6.25 | 110
4 | CC(=O)C1=CCN(C)CC1 [isoarecolone HCl] | – | produce nicotine-like discriminative stimulus effects | – | –

— patent publication EP0537993A1, “Nicotinic activity of a series of arecolones and isoarecolones” (ELI LILLY AND COMPANY, priority 1991, dated 1993)
